Where two headings read alike, the source gives them in different places.
Columns and labels:
p110α = p110α (UniProt P32871); test: PI 3-kinase lipid kinase assay with recombinant GST-p110α, PtdIns as substrate; format: biochemical
Description: Typically, PI 3-kinase assays were performed in a total volume of 50 μl containing 20 mM Hepes pH7.4. 100 mM NaCl, 0.1 mM EGTA, 0.1% β-mercaptoethanol, and 200 μM phosphoinositide. After preincubating sonicated lipid with sample for 10 minutes, the reactions were initiated upon the addition of 2.5 mM MgCl2, 100 mM ATP (0.2 μCiγ[^32 P] ATP). Assays were incubated at 30° C. for 20 minutes and terminated with acidified chloroform:methanol. The extracted lipid products were analysed by thin layer chromatography using Silica gel 60 plates and chloroform:methanol:4M ammonium hydroxide (45:35:10) for assays examining phosphorylation of Ptdlns. When separations of PtdIns 3P, PtdIns (3,4) P2 and PItdIns (3,4,5) P3 was required, propan-1-ol: 2M acetic acid (65:35) was used. Phosphorylated lipids were visualised by either autoradiography or by phosphoimage analysis (Molecular Dynamics). Assays were linear with respect to time and enzyme addition.
(§1) The effect of these inhibitors on the lipid kinase activity of PI3K-C2α was examined, using PtdIns as a substrate, in the presence of increasing concentrations of each inhibitor.

PI3K-C2α = target: T1, PI3K-C2α (Homo sapiens, UniProt O00443); test: PI 3-kinase lipid kinase assay with recombinant GST-PI3K-C2α, PtdIns as substrate; format: biochemical
T1 construct: made in house; host or cells: Sf9 insect cells (baculovirus, pAcGex vector)
T1 sequence (O00443 148-1686): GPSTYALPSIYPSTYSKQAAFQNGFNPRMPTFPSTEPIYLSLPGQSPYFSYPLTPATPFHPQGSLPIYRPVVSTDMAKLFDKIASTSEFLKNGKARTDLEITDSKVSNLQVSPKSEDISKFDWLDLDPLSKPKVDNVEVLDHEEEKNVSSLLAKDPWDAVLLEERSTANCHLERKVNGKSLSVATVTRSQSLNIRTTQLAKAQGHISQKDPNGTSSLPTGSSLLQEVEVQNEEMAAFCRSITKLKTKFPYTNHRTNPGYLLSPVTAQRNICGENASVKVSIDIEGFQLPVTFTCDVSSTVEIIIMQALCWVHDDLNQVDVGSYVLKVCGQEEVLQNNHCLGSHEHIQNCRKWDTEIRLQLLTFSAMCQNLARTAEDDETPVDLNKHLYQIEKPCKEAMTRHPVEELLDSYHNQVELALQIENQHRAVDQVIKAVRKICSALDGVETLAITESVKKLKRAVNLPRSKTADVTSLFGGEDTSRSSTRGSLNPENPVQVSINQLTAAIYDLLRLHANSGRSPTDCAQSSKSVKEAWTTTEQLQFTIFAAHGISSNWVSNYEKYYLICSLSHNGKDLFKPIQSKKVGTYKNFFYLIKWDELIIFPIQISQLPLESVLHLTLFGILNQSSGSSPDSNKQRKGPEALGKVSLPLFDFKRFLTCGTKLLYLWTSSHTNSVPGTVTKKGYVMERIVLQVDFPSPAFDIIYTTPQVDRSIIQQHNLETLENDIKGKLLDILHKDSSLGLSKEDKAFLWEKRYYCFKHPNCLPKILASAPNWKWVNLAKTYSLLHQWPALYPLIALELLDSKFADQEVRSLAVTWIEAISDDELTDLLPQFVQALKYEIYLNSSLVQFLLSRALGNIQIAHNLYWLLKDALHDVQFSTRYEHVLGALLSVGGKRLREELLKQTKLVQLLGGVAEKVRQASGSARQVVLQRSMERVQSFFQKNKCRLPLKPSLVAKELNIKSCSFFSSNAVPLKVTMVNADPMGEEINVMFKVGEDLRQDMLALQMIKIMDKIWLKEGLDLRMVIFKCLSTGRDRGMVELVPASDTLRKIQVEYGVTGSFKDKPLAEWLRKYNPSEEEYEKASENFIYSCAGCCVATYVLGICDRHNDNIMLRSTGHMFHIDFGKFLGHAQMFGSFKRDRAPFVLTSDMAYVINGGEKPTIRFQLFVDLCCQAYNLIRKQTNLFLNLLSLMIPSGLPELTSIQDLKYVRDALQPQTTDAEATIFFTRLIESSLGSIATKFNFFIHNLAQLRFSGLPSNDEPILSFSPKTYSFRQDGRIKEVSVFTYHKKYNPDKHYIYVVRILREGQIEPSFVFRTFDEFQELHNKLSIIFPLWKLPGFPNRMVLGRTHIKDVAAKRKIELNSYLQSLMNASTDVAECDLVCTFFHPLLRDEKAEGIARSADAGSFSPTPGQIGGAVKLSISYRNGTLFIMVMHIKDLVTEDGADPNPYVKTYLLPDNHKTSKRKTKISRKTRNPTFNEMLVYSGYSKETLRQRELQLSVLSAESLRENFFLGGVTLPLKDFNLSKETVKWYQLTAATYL
Description: Typically, PI 3-kinase assays were performed in a total volume of 50 μl containing 20 mM Hepes pH7.4. 100 mM NaCl, 0.1 mM EGTA, 0.1% β-mercaptoethanol, and 200 μM phosphoinositide. After preincubating sonicated lipid with sample for 10 minutes, the reactions were initiated upon the addition of 2.5 mM MgCl2, 100 mM ATP (0.2 μCiγ[^32 P] ATP). Assays were incubated at 30° C. for 20 minutes and terminated with acidified chloroform:methanol. The extracted lipid products were analysed by thin layer chromatography using Silica gel 60 plates and chloroform:methanol:4M ammonium hydroxide (45:35:10) for assays examining phosphorylation of Ptdlns. When separations of PtdIns 3P, PtdIns (3,4) P2 and PItdIns (3,4,5) P3 was required, propan-1-ol: 2M acetic acid (65:35) was used. Phosphorylated lipids were visualised by either autoradiography or by phosphoimage analysis (Molecular Dynamics).
The enzymatic activity and substrate specificity were investigated and compared to that of GST-p110α expressed in the same system.
as §1

Row | SMILES | IC50 (p110α; read-out: IC50 of p110α lipid kinase activity, Wortmannin, FIG. 5A) [nM] | IC50 (PI3K-C2α; Wortmannin, PtdIns substrate, FIG. 5A) [µM] | concentration giving maximal inhibition of p110α (p110α; LY294002, FIG. 5B) [µM] | IC50 (PI3K-C2α) [µM] | difference in sensitivity between PI3K-C2α and p110α (PI3K-C2α; LY294002, PI3K-C2α less sensitive than p110α) | concentration giving maximal attenuation of PI3K-C2α lipid kinase activity (PI3K-C2α; LY294002, PtdIns substrate) [mM]
1 | COC[C@H]1OC(=O)c2coc3c2[C@@]1(C)C1=C(C3=O)[C@@H]2CCC(=O)[C@@]2(C)C[C@H]1OC(C)=O [Wortmannin] | 3 | 0.2 | – | – | – | –
2 | O=c1cc(N2CCOCC2)oc2c(-c3ccccc3)cccc12 [LY294002, 2-(4-morpholinyl)-8-phenyl-4H-1-benzopyran-4-one] | – | – | 300 | 20 | approximately one order of magnitude | 2
